{
  "source": "patent US5693330A",
  "about": "“Skin care compositions containing melinamide and a retinoid” (priority 1996, dated 1997)",
  "test_system": "Human keratinocytes",
  "assay": "3H-thymidine incorporation by cultured keratinocytes (keratinocyte proliferation)",
  "format": "cell-based",
  "conditions": "for effect on keratinocyte proliferation (summary): Examples 1-3; for activity at 0.1 µM / activity at 0.25 µM / activation at 0.25 µM / activation at 0.025 µM / activity at 0.025 µM: Homo sapiens, Keratinocyte; for activity at 0.1 µM / activity at 0.25 µM / activity at 0.025 µM: read-out: mean Thymidine incorp/μg protein (% control)",
  "protocol": "Human keratinocytes, isolated from neonatal foreskin by trypsin treatment were grown in Dulbecco Modification Eagle (DME) Hams F12 (1:1) medium/10% fetal calf serum in the presence of irradiated 3T3 mouse fibroblasts for establishing dividing keratinocyte colonies. Cells were grown under the above condition until their second passage and kept frozen for future use. Frozen second passage keratinocytes were thawed and plated into the above medium and grown for five days before they were switched to a serum-free MCDB 153-based medium keratinocyte growth medium (KGM) from Clonetics Corporation, San Diego, Calif., containing 0.15 mM Ca, or keratinocyte serum-free media (KSFM) from GIBCO containing 0.09 mM Ca). On day 7, when the cells were 80-90% confluent, they were trypsinized and plated in the serum-free medium for the various experiments.\nThe incorporation of ^3 H-thymidine by cultured keratinocytes was used as an assay of keratinocyte proliferation. Thymidine is one of four deoxynucleosides which are the monomeric units of DNA, the universal library of genetic information in the animal kingdom. Prior to cell division of a somatic cell such as a keratinocyte, the complete genome of the cell undergoing cell division is replicated. This involves large scale DNA synthesis by the cell and enables both daughter cells to receive identical copies of the genetic material. When ^3 H-thymidine is included in the culture media of keratinocytes which are synthesizing DNA in preparation for cell division then the labelled nucleoside is incorporated into the newly synthesized DNA. The extent of incorporation of ^3 H-thymidine into a population of cells is proportional to the rate of DNA synthesis by this population of cells and therefore an indication of their cellular proliferation.\nKeratinocytes (that were cultured as described above) were plated in 24 well plates at a density of 40,000 cells per well in 1 ml media. After incubation for four days or until the cells were 60-70% confluent, the media was changed. Test compounds were added (in triplicate) to the wells 24 hours after the media change, and four hours later 1 μCl ^3 H-Thymidine in 50 μl media was added per well. Cells were incubated for a further 24 hours. Media was removed from the cells, 10% ice cold trichloroacetic acid (TCA) added and plates were incubated on ice for 30 minutes. Cells were washed five times with 5% TCA and allowed to dissolve in 500 μl […] NaOH for at least one hour (usually overnight). The preparations were neutralized with 0.1M HCl; 50 μl of the cell preparation was used to determine total protein content. Disintegrations per minute (DPM) from ^3 H labelling of DNA was determined by liquid scintillation counting of […] of the cell preparation. Thymidine incorporation results were expressed as DPM/μg protein.\nA. The effect on incorporation of ^3 H-thymidine μg soluble protein 24 hours after the addition of retinoic acid or retinol at various concentrations was examined.\nThe effect on incorporation of ^3 H-thymidine/μg soluble protein 24 hours after addition of the test compounds was examined and the combined results of three independent experiments were normalized to their respective ethanol controls.\nThe effect of melinamide and the retinyl ester (retinyl palmitate) on incorporation of ^3 H-thymidine was examined.",
  "key": {"[1]": {"conditions": "Example 2, 2.5 × 10^-8 M, n = 3, 24 hours, three experiments normalized to ethanol controls"}, "[2]": {"conditions": "read-out: increase in keratinocyte thymidine incorporation over the ethanol control"}},
  "note": "Where two headings read alike, the source gives them in different places.",
  "data": [
    {"smiles": "CCCCC/C=C\\C/C=C\\CCCCCCCC(=O)NC(C)c1ccccc1", "note": "(stereo not shown) [Melinamide, melinamide]", "values": [
      {"measurement": "effect on keratinocyte proliferation on its own", "setting": "Example 2, 10^-7 M", "value": "no effect"},
      {"measurement": "mean Thymidine incorp/μg protein ± s.d", "setting": "Example 2, 10^-7 M, n = 3, 24 hours, three experiments normalized to ethanol controls", "value": "4695 ± 324", "unit": "DPM/μg protein"},
      {"measurement": "effect on keratinocyte proliferation on its own", "setting": "Example 3, 10^-7 M", "value": "no effect"},
      {"measurement": "mean Thymidine incorp/μg protein ± s.d", "setting": "Example 3, 10^-7 M", "value": "4635 ± 608", "unit": "DPM/μg protein"},
      {"measurement": "effect on keratinocyte proliferation (summary)", "value": "little or no benefit on its own"},
      {"measurement": "activity at 0.1 µM", "setting": "24 h, Example 2, 10^-7 M, n = 3, 24 hours", "value": 91, "unit": "%"},
      {"measurement": "activity at 0.1 µM", "setting": "24 h, Example 3, 10^-7 M", "value": 84, "unit": "%"}
    ]},
    {"smiles": "CCCCCCCCCCCCCCCC(=O)OC/C=C(C)/C=C/C=C(C)/C=C/C1=C(C)CCCC1(C)C", "note": "[Retinyl palmitate, retinyl palmitate]", "values": [
      {"measurement": "mean Thymidine incorp/μg protein ± s.d", "setting": "Example 3, 2.5 × 10^-7 M", "value": "5746 ± 113", "unit": "DPM/μg protein"},
      {"measurement": "activity at 0.25 µM", "setting": "24 h, Example 3, 2.5 × 10^-7 M", "value": 104, "unit": "%"}
    ]},
    {"smiles": "CC1=C(/C=C/C(C)=C/C=C/C(C)=C/C(=O)O)C(C)(C)CCC1", "note": "[RA, Retinoic acid]", "values": [
      {"measurement": "keratinocyte proliferation over both the ethanol control and each of the retinol treatments", "setting": "Example 1, 2.5×10^-7 M, 2.5×10^-8 and 2.5×10^-9 M", "value": "significantly increased keratinocyte proliferation"},
      {"measurement": "mean Thymidine incorp/μg protein ± s.d", "setting": "[1]", "value": "6711 ± 402", "unit": "DPM/μg protein"},
      {"measurement": "mean Thymidine incorp/μg protein ± s.d", "setting": "Example 3, 2.5 × 10^-7 M", "value": "7795 ± 370", "unit": "DPM/μg protein"},
      {"measurement": "effect on keratinocyte proliferation (summary)", "value": "increased keratinocyte proliferation"},
      {"measurement": "activity at 0.25 µM", "setting": "24 h, Example 3, 2.5 × 10^-7 M", "value": 142, "unit": "%"},
      {"measurement": "activation at 0.25 µM", "setting": "read-out: increase in keratinocyte thymidine incorporation over the 2.5×10^-7 M retinyl palmitate treatment", "value": 38, "unit": "%"},
      {"measurement": "activation at 0.025 µM", "setting": "read-out: increase in keratinocyte thymidine incorporation over the 2.5×10^-8 M retinol treatment", "value": 30, "unit": "%"},
      {"measurement": "activation at 0.025 µM", "setting": "[2]", "value": 30, "unit": "%"},
      {"measurement": "activation at 0.25 µM", "setting": "[2]", "value": 38, "unit": "%"},
      {"measurement": "activity at 0.025 µM", "setting": "Example 2, 2.5 × 10^-8 M, n = 3, 24 hours", "value": 130, "unit": "%"}
    ]},
    {"smiles": "CC1=C(/C=C/C(C)=C/C=C/C(C)=C/CO)C(C)(C)CCC1", "note": "[ROH, Retinol]", "values": [
      {"measurement": "mean Thymidine incorp/μg protein ± s.d", "setting": "[1]", "value": "3956 ± 1303", "unit": "DPM/μg protein"},
      {"measurement": "effect on keratinocyte proliferation (summary)", "value": "completely ineffective at increasing keratinocyte proliferation"},
      {"measurement": "activity at 0.025 µM", "setting": "24 h, Example 2, 2.5 × 10^-8 M, n = 3, 24 hours", "value": 76, "unit": "%"}
    ]}
  ]
}
